Common to all, as to conditions: treatment: drug + dasatinib (fixed dose, not stated); 5 days
In assay [1] the test system is 786-O. Put plainly: minimum viability across doses, drug + dasatinib, relative to DMSO (fraction); higher = less growth inhibition. How it is done:
(§1)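 Primary HTS combination arm: 8 RCC cell lines treated with 8 doses (up to 10 uM) of each library drug plus a fixed dose of dasatinib (dose not stated) for 5 days; viability read by CellTiter-Glo and normalised to DMSO. GI50 was fitted with XLfit, AUC is the area under the dose-response curve, and minimum viability is the lowest fraction of DMSO viability across doses.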

For assay [2], the system named is A498. The assay is described as above. Here is the method:
as §1

Assay [3] relates to UO-31. The assay is described as above. How it is done: as §1
Assay [4] has as its system 769-P. The assay is described as above. Here is the method: as §1
Assay [5] has as its system TK-10. The assay is described as above. Here is the method:
as §1

For assay [6], the system named is ACHN. The description is as above. How it is done:
as §1

In assay [7] the test system is CAKI-1. The description is as above. How it is done: as §1
Assay [8] relates to SN12C. The assay is described as above. Here is the method: as §1
Assay [9] concerns 786-O. As to the kind of experiment: AUC of dose-response viability curve, drug + dasatinib, normalised to DMSO (arbitrary (AUC of normalised viability)); higher = less growth inhibition. Here is the method:
as §1

For assay [10], the system named is A498. Described as above. How it is done:
as §1

Assay [11] concerns UO-31. Described as above. How it is done:
as §1

Assay [12] deals with 769-P. Described as above. Here is the method: as §1
For assay [13], the system named is TK-10. Described as above. How it is done:
as §1

Assay [14] has as its system ACHN. The description is as above. How it is done:
as §1

Assay [15] has as its system CAKI-1. The assay is described as above. How it is done: as §1
The test system of assay [16] is SN12C. Described as above. How it is done:
as §1

Assay [17] deals with 786-O. As to the kind of experiment: GI50 of drug in presence of dasatinib; higher = less potent. Here is the method: as §1
For assay [18], the system named is A498. The description is as above. How it is done: as §1
In assay [19] the test system is UO-31. Described as above. How it is done:
as §1

Assay [20] relates to 769-P. The description is as above. Here is the method:
as §1

In assay [21] the test system is TK-10. Described as above. Here is the method:
as §1

The subject of assay [22] is ACHN. The assay is described as above. How it is done:
as §1

Assay [23] relates to CAKI-1. The description is as above. How it is done:
as §1

Assay [24] has as its system SN12C. The description is as above. How it is done: as §1

Regarding `Cl.Cl.Fc1cc(-c2cccc3ncc(-c4cnn(C5CCNCC5)c4)nc23)cc(F)c1CN1CCOCC1` [NVP-BSK805] + Cc1nc(Nc2ncc(C(=O)Nc3c(C)cccc3Cl)s2)cc(N2CCN(CCO)CC2)n1 [dasatinib], the “minimum viability across doses” value in the assay on 786-O [1] was found to be 0.00448; with A498 [2] it was 0.0371; in the assay with UO-31 [3], 0.0214; in the assay on 769-P [4], 0.37; in the assay on TK-10 [5], 0.108; in the assay with ACHN [6], 0.0139. For the same compound, the results for the “minimum viability across doses” value in the assay with CAKI-1 [7] and with SN12C [8] were 0.0163 and 0.127, respectively. For the same compound, the “AUC of dose-response viability curve” value was 1.85 in the assay on 786-O [9]; 3.09 in the assay on A498 [10]; 3.35 in the assay on UO-31 [11]; 2.29 in the assay on 769-P [12]; 2.08 in the assay with TK-10 [13]; 1.64 with ACHN [14]. For the same compound, the “AUC of dose-response viability curve” value was determined as 1.9 in the assay with CAKI-1 [15] and 2.15 in the assay on SN12C [16]. Besides, the GI50 of drug in the assay on 786-O [17] was 44.1 nM; in the assay on A498 [18], 5130 nM; in the assay with UO-31 [19] it was 2940 nM; with 769-P [20] it was 3940 nM; with TK-10 [21] it was 1420 nM; in the assay with ACHN [22], 380 nM. Also, the figures for the GI50 of drug in the assay on CAKI-1 [23] and in the assay with SN12C [24] were 962 nM and 2430 nM, respectively.
In the case of `Cn1cc(-c2ccc3ncc(Cc4ccc5ncccc5c4)n3n2)cn1` [NVP-BVU972] + Cc1nc(Nc2ncc(C(=O)Nc3c(C)cccc3Cl)s2)cc(N2CCN(CCO)CC2)n1 [dasatinib], the “minimum viability across doses” value with 786-O [1] stood at 0.00818; with A498 [2], 0.0158; with UO-31 [3], 0.0147; in the assay on 769-P [4], 0.0263; in the assay with TK-10 [5], 0.119; with ACHN [6] it was 0.0103. Further, the “minimum viability across doses” value in the assay on CAKI-1 [7] came to 0.0417; in the assay with SN12C [8] it was 0.0116. For the same compound, the “AUC of dose-response viability curve” value in the assay on 786-O [9] came to 1.79; with A498 [10], 3.44; in the assay on UO-31 [11], 3.81; in the assay with 769-P [12], 2.06; in the assay with TK-10 [13], 2.03; with ACHN [14] it was 1.28. Also, the “AUC of dose-response viability curve” value in the assay on CAKI-1 [15] came out at 1.71; with SN12C [16] it was 2.12. The GI50 of drug in the assay on 786-O [17] was found to be 361 nM; in the assay on A498 [18], 1440 nM; in the assay on UO-31 [19] it was 2040 nM; with 769-P [20], 1150 nM; with TK-10 [21], 836 nM; in the assay on ACHN [22] it was 15.4 nM. Also, the figures for the GI50 of drug in the assay on CAKI-1 [23] and in the assay on SN12C [24] were 303 nM and 1900 nM, respectively.
For the compound `CNC(=O)c1ccccc1Nc1nc(Nc2ccc(N3CCOCC3)cc2OC)ncc1Cl` [NVP-TAE226] + Cc1nc(Nc2ncc(C(=O)Nc3c(C)cccc3Cl)s2)cc(N2CCN(CCO)CC2)n1 [dasatinib], the “minimum viability across doses” value in the assay with 786-O [1] came to 0.00641; in the assay on A498 [2] it was 0.201; in the assay with UO-31 [3] it was 0.00626; in the assay with 769-P [4], 0.085; in the assay with TK-10 [5], 0.0355; in the assay with ACHN [6] it was 0.0673. For the same compound, the “minimum viability across doses” value was determined as 0.0135 in the assay on CAKI-1 [7] and 0.132 in the assay on SN12C [8]. Moreover, the “AUC of dose-response viability curve” value in the assay on 786-O [9] was found to be 1.1; in the assay with A498 [10], 3.26; in the assay with UO-31 [11], 2.35; with 769-P [12], 1.98; in the assay on TK-10 [13] it was 1.64; with ACHN [14], 1.19. Besides, the “AUC of dose-response viability curve” value in the assay on CAKI-1 [15] was determined as 1.34; in the assay with SN12C [16] it was 1.91. Moreover, the GI50 of drug in the assay on 786-O [17] worked out at 26.7 nM; in the assay with A498 [18], 5880 nM; in the assay on UO-31 [19], 334 nM; in the assay on 769-P [20] it was 750 nM; in the assay with TK-10 [21], 202 nM; in the assay on ACHN [22] it was 27.4 nM. Besides, the GI50 of drug in the assay on CAKI-1 [23] was 107 nM; in the assay with SN12C [24], 335 nM.
With `COc1ccc(C2=NC(c3ccc(Cl)cc3)C(c3ccc(Cl)cc3)N2C(=O)N2CCNC(=O)C2)c(OC(C)C)c1` (stereo unspecified) [Nutlin-3] + Cc1nc(Nc2ncc(C(=O)Nc3c(C)cccc3Cl)s2)cc(N2CCN(CCO)CC2)n1 [dasatinib], the “minimum viability across doses” value in the assay on 786-O [1] came to 0.707; in the assay with A498 [2], 0.905; in the assay on UO-31 [3], 0.583; in the assay with 769-P [4], 0.519; in the assay with TK-10 [5], 0.665; in the assay with ACHN [6], 0.2. The “minimum viability across doses” value with CAKI-1 [7] was 0.168; with SN12C [8], 0.712. In addition, the “AUC of dose-response viability curve” value was 2.83 in the assay on 786-O [9]; 3.61 with A498 [10]; 4.46 in the assay with UO-31 [11]; 2.54 in the assay with 769-P [12]; 2.5 in the assay on TK-10 [13]; 1.89 in the assay with ACHN [14]. For the same compound, the figures for the “AUC of dose-response viability curve” value in the assay on CAKI-1 [15] and with SN12C [16] were 2.15 and 2.62, respectively. Moreover, the GI50 of drug in the assay with 786-O [17] was more than 10000 nM; in the assay on A498 [18], more than 10000 nM; with UO-31 [19], more than 10000 nM; with 769-P [20], more than 10000 nM; in the assay with TK-10 [21], more than 10000 nM; in the assay with ACHN [22] it was 2000 nM. For the same compound, the GI50 of drug with CAKI-1 [23] is 2420 nM; with SN12C [24] it was more than 10000 nM.

These data come from the supplement of paper PMC8149375.
